Target: GLP1R (Homo sapiens, UniProt P43220)
Assay: GLP1R cAMP HTRF assay, HEK293/GLP-1R/CRE/Luc (HEK293T cells)
Assay type: cell-based
Details: read-out: EC50
How it was run: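 cAMP accumulation via HTRF after 30 min, 37 °C exposure of 1000 receptor-expressing cells/well to compound (0.5% DMSO final) in IBMX (500 μM)/0.1% BSA DPBS.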

GLP1R, sequence (P43220 24-463): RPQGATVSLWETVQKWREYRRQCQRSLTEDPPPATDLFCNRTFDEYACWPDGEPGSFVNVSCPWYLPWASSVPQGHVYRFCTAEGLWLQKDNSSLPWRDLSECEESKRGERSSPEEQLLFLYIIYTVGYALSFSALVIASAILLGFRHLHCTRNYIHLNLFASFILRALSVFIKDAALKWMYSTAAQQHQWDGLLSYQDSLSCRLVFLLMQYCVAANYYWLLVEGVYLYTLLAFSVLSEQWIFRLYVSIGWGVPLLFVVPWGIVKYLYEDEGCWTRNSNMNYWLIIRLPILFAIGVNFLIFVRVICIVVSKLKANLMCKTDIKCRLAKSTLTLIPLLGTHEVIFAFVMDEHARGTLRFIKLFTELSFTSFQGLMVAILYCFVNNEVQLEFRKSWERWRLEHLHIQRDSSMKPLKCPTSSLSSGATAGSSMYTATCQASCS

Compound	EC50
O=C(O)c1ccc2nc(CN3CC=C(c4ccc5ccn(Cc6ccc(Cl)cc6F)c5n4)CC3)n(C[C@@H]3CCO3)c2c1 [Compound 25, (S)-2-((4-(1-(4-chloro-2-fluorobenzyl)-1 h-pyrrolo[2,3-b]pyridin-6-yl)-5,6-dihydropyridin-1(2H)-yl)methyl)-1-(oxetan-2-ylmethyl)-1 h-benzo[d]imidazole-6-carboxylic acid]	≤ 150 nM
O=C(O)c1ccc2nc(CN3CC=C(c4cccc(NC5CCOc6cc(Cl)ccc65)n4)CC3)n(C[C@@H]3CCO3)c2c1 (stereo partly drawn) [Compound 61, 2-((4-(6-(7-chlorochroman-4-ylamino)pyridin-2-yl)-5,6-dihydropyridin-1(2H)-yl)methyl)-1-((S)-oxetan-2-ylmethyl)-1H-benzo[d]imidazole-6-carboxylic acid]	≤ 1000 nM
N#Cc1ccc(COc2cccc(C3=CCN(Cc4nc5ccc(C(=O)O)cc5n4C[C@@H]4CCO4)CC3)c2)c(F)c1 [Compound 175, (S)-2-((4-(3-((4-cyano-2-fluorobenzyl)oxy)phenyl)-3,6-dihydropyridin-1(2H)-yl)methyl)-1-(oxetan-2-ylmethyl)-1H-benzo[d]imidazole-6-carboxylic acid]	≤ 15 nM
O=C(O)c1ccc2nc(CN3CC=C(c4ccnc(OCc5ccc(C#CC6CC6)cc5F)n4)CC3)n(C[C@@H]3CCO3)c2c1 [Compound 201, (S)-2-((4-(2-((4-(cyclopropylethynyl)-2-fluorobenzyl)oxy)pyrimidin-4-yl)-3,6-dihydropyridin-1(2H)-yl)methyl)-1-(oxetan-2-ylmethyl)-1H-benzo[d]imidazole-6-carboxylic acid]	≤ 15 nM
O=C(O)c1ccc2nc(CN3CC=C(c4nc(OCc5ccc(C#CC6CC6)cc5F)c(F)cc4F)CC3)n(C[C@@H]3CCO3)c2c1 [Compound 213, (S)-2-((4-(6-(4-(cyclopropylethynyl)-2-fluorobenzyloxy)-3,5-difluoropyridin-2-yl)-5,6-dihydropyridin-1(2H)-yl)methyl)-3-(oxetan-2-ylmethyl)-3H-benzo[d]imidazole-5-carboxylic add]	≤ 15 nM
O=C(O)c1ccc2nc(CN3CC4CC3CN4c3cccc(OCc4ccc(Cl)cc4F)n3)n(C[C@@H]3CCO3)c2c1 (stereo partly drawn) [Compound 16, 2-((5-(6-((4-chloro-2-fluorobenzyl)oxy)pyridin-2-yl)-2,5-diazabicyclo[2.2.1]heptan-2-yl)methyl)-1-(((S)-oxetan-2-yl)methyl)-1 h-benzo[d]imidazole-6-carboxylic acid]	≤ 150 nM
N#Cc1ccc(COc2cccc(N3CCN(Cc4nc5ccc(C(=O)O)nc5n4C[C@@H]4CCO4)CC3=O)n2)c(F)c1 [Compound 234, (S)-2-((4-(6-(4-cyano-2-fluorobenzyloxy)pyridin-2-yl)-3-oxopiperazin-1-yl)methyl)-3-(oxetan-2-ylmethyl)-3H-imidazo[4,5-b]pyridine-5-carboxylic acid]	≤ 150 nM
O=C(NS(=O)(=O)C(F)(F)F)c1ccc2nc(CN3CC=C(c4cccc(OCc5ccc(Cl)cc5F)n4)CC3)n(C[C@@H]3CCO3)c2c1 [Compound 173, (S)-2-((6-((4-chloro-2-fluorobenzyl)oxy)-3′,6′-dihydro-[2,4′-bipyridin]-1′(2′H)-yl)methyl)-1-(oxetan-2-ylmethyl)-N-((trifluoromethyl)sulfonyl)-1H-benzo[d]imidazole-6-carboxamide]	≤ 1000 nM
O=C(O)c1ccc2nc(CC3CCN(c4cccc(OCc5ccc(F)cc5F)n4)CC3)n(C[C@@H]3CCO3)c2n1 [Compound 229, (S)-2-((l-(6-((2,4-difluorobenzyl)oxy)pyridin-2-yl)piperidin-4-yl)methyl)-3-(oxetan-2-ylmethyl)-3H-imidazo[4,5-b]pyridine-5-carboxylic acid]	≤ 15 nM
O=C(O)c1ccc2nc(CN3CC=C(c4cccc(OCc5cccnc5)n4)CC3)n(C[C@@H]3CCO3)c2c1 [Compound 158]	≤ 150 nM
O=C(O)c1ccc2cc(CN3CCN(c4cccc(OCc5ccc(Cl)cc5F)n4)CC3)n(C[C@@H]3CCO3)c2c1 [Compound 49, (S)-2-((4-(6-(4-chloro-2-fluorobenzyloxy)pyridin-2-yl)piperazin-1-yl)methyl)-1-(oxetan-2-ylmethyl)-1 h-indole-6-carboxylic acid]	> 1000 nM
O=C(O)c1ccc2nc(CN3CC(=O)N(c4cccc(OCc5ccc(Cl)cc5F)n4)CC3=O)n(C[C@@H]3CCO3)c2c1 [Compound 168, (S)-2-((4-(6-(4-chloro-2-fluorobenzyloxy)pyridin-2-yl)-2,5-dioxopiperazin-1-yl)methyl)-1-(oxetan-2-ylmethyl)-1H-benzo[d]imidazole-6-carboxylic acid]	≤ 15 nM
Cc1ncccc1COc1cccc(C2=CCN(Cc3nc4ccc(C(=O)O)cc4n3C[C@@H]3CCO3)CC2)n1 [Compound 161, (S)-2-((6-((2-methylpyridin-3-yl)methoxy)-3′,6′-dihydro-[2,4′-bipyridin]-1′(2′ H)-yl)methyl)-1-(oxetan-2-ylmethyl)-1H-benzo[d]imidazole-6-carboxylic acid]	≤ 150 nM
O=C(O)c1ccc2nc(CN3CC=C(c4cccc(OCc5ccc(Cl)cc5F)c4F)CC3)n(C[C@@H]3CCO3)c2c1 [Compound 40, (S)-2-((4-(3-(4-chloro-2-fluorobenzyloxy)-2-fluorophenyl)-5,6-dihydropyridin-1(2H)-yl)methyl)-1-(oxetan-2-ylmethyl)-1 h-benzo[d]imidazole-6-carboxylic add]	≤ 1000 nM
O=C(O)c1ccc2nc(CN3CC=C(c4ccnc(OCc5ccc(F)cc5F)n4)CC3)n(C[C@@H]3CCO3)c2c1 [Compound 215, (S)-2-((4-(2-((2H-difluorobenzyl)oxy)pyrimidin-4-yl)-3,6-dihydropyridin-1(2H)-yl)methyl)-1-(oxetan-2-ylmethyl)-1H-benzo[d]imidazole-6-carboxylic acid]	≤ 150 nM

Now from value to compound:

EC50	Compound
≤ 150 nM	Cc1ccc(C2=CCN(Cc3nc4ccc(C(=O)O)cc4n3C[C@@H]3CCO3)CC2)cc1OCc1ccc(Cl)cc1F [Compound 64, (S)-2-((4-(3-((4-chloro-2-fluorobenzyl)oxy)-4-methylphenyl)-3,6-dihydropyridin-1(2H)-yl)methyl)-1-(oxetan-2-ylmethyl)-1H-benzo[d]imidazole-6-carboxylic acid]
≤ 15 nM	O=C(O)c1ccc2nc(CN3CC=C(c4nc(OCc5ccc(C(F)(F)F)nc5)c(F)cc4F)CC3)n(C[C@@H]3CCO3)c2c1 [Compound 220, (S)-2-((3,5-difluoro-6-((6-(trifluoromethyl)pyridin-3-yl)methoxy)-5′,6′-dihydro-[2,4′-bipyridin]-1′(2′H)-yl)methyl)-1-(oxetan-2-ylmethyl)-1H-benzo[d]imidazole-6-carboxylic acid]
≤ 15 nM	N#Cc1ccc(COc2nc(C3=CCN(Cc4nc5ccc(C(=O)O)cc5n4C[C@@H]4CCO4)CC3)c(F)cc2F)c(F)c1 [Compound 212, (S)-2-((6-((4-cyano-2-fluorobenzyl)oxy)-3,5-difluoro-3′,6′-dihydro-[2,4′-bipyridin]-1′(2′H)-yl)methyl)-1-(oxetan-2-ylmethyl)-1H-benzo[d]imidazole-6-carboxylic add]
> 1000 nM	Cn1c(CN2CCN(c3cccc(OCc4ccc(Cl)cc4F)n3)CC2)cc2ccc(C(=O)O)cc21 [Compound 50, 2-((4-(6-(4-chloro-2-fluorobenzyloxy)pyridin-2-yl)piperazin-1-yl)methyl)-1-methyl-1 h-indole-6-carboxylic add]
> 1000 nM	O=C(O)c1ccc2nc(CN3CCC(N4CCc5ccc(-c6ccc(Cl)cc6F)cc5C4=O)CC3)n(C[C@@H]3CCO3)c2c1 [Compound 54, (S)-2-((4-(7-(4-chloro-2-fluorophenyl)-1-oxo-3,4-dihydroisoquinolin-2(1H)-yl)piperidin-1-yl)methyl)-1-(oxetan-2-ylmethyl)-1 h-benzo[d]imidazole-6-carboxylic acid]
≤ 1000 nM	O=C(O)c1ccc2nc(CN3CC=C(c4cc(-c5ccccc5)cc(OCc5ccc(Cl)cc5F)n4)CC3)n(C[C@@H]3CCO3)c2c1 [Compound 109]
≤ 150 nM	O=C(O)c1ccc2nc(CN3CC=C(c4cccc(OCc5ccc(OC(F)(F)F)nc5)n4)CC3)n(C[C@@H]3CCO3)c2c1 [Compound 121, (S)-1-(oxetan-2-ylmethyl)-2-((6-((6-(trifluoromethoxy)pyridin-3-yl)methoxy)-3′,6′-dihydro-[2,4′-bipyridin]-1′(2′H)-yl)methyl)-1H-benzo[d]imidazole-6-carboxylic acid]
≤ 150 nM	O=C(O)c1ccc2nc(CN3CC=C(c4cccc(OCc5ccncc5)n4)CC3)n(C[C@@H]3CCO3)c2c1 [Compound 160, (S)-1-(oxetan-2-ylmethyl)-2-((6-(pyridin-4-ylmethoxy)-5′,6′-dihydro-[2H′-bipyridin]-1′(2′H)-yl)methyl)-1H-benzo[d]imidazole-6-carboxylic acid]
≤ 15 nM	COc1ccc(COc2cccc(C3=CCN(Cc4nc5ccc(C(=O)O)cc5n4C[C@@H]4CCO4)CC3)n2)nc1 [Compound 117, (S)-2-((6-((5-methoxypyridin-2-yl)methoxy)-3′,6′-dihydro-[2,4′-bipyridin]-1′(2′H)-yl)methyl)-1-(oxetan-2-ylmethyl)-1H-benzo[d]imidazole-6-carboxylic add]
≤ 15 nM	O=C(O)c1ccc2nc(CN3CC=C(c4cccc(OCc5cccc(C(F)(F)F)c5)n4)CC3)n(C[C@@H]3CCO3)c2c1 [Compound 134, (S)-1-(oxetan-2-ylmethyl)-2-((6-((3-(trifluoromethyl)benzyl)oxy)-3′,6′-dihydro-[2,4′-bipyridin]-1′(2H)-yl)methyl)-1H-benzo[d]imidazole-6-carboxylic acid]
≤ 1000 nM	O=C(O)c1ccc2nc(CN3CC=C(c4ccc5c(n4)N(Cc4ccc(Cl)cc4F)C(=O)CO5)CC3)n(C[C@@H]3CCO3)c2c1 [Compound 38, (S)-2-((4-(4-(4-chloro-2-fluorobenzyl)-3-oxo-3,4-dihydro-2 h-pyrido[3,2-b][1,4]oxazin-6-yl)-5,6-dihydropyridin-1(2H)-yl)methyl)-1-(oxetan-2-ylmethyl)-1 h-benzo[d]imidazole-6-carboxylic add]

— patent US10844049B2, “GLP-1R agonists and uses thereof” (QILU REGOR THERAPEUTICS INC., priority 2018, dated 2020)
